Laboratory results as given in article PMC5356016, “Suppression of Sin3A activity promotes differentiation of pluripotent cells into functional neurons” (Scientific Reports, 2017).
Entries after “also recorded” stand apart in the source; their conditions may differ.

What was measured:
[1] = test system: voltage-gated sodium channels; format: cell-based, mouse
[2] = test system: voltage-gated sodium channels; format: cell-based, mouse; remark: listed apart in the source
Sin3A PAH1 = conditions: SAP25 protein sequence 171–186, ref [35]; cited from earlier work
From the text: (§1) If this proposal is correct, a synthetic inhibitor of Sin3A-REST interactions should promote neurogenesis of these cells. Previous studies have shown that the N-terminal PAH1 and PAH2 domains of Sin3A bind to the N-terminal region of REST[6].

[3] = test system: Sin3A PAH1-REST interaction; experiment: Competitive ELISA, inhibition of PAH1-REST binding; parameters: species or system mouse; conditions: peptide 0-100 μM pre-incubated 2 h, room temperature, GST-REST 2 μg/mL, mean ± s.d., n = 3
[4] = test system: Sin3A PAH2-REST interaction; experiment: Competitive ELISA, inhibition of PAH2-REST binding; parameters: species or system mouse; conditions: peptide 0-100 μM pre-incubated 2 h, room temperature, GST-REST 2 μg/mL, mean ± s.d., n = 3
[5] = test system: mouse Sin3A PAH1 (residues 114–195); experiment: Fluorescence polarization binding to Sin3A PAH1; conditions: 1 μM FITC-labeled peptide, PAH1 or PAH2 0-10 μM, 20 mM Tris-HCl, 150 mM NaCl, pH 7.5, 30 min, room temperature; ex 495/em 520 nm; mean ± s.d., n = 3
Sin3A-REST interaction = experiment: Co-immunoprecipitation of Sin3A and REST from P19 cell lysates; format: biochemical, mouse; conditions: peptide 0, 30, 60 μM, 2 h at 4 °C, anti-REST or anti-Sin3A immunoprecipitation, western blot, at least three experiments
Description: We next examined whether the Mad1 and SAP25 peptides block the Sin3A-REST interaction. First, the ability of these peptides to inhibit the associations of PAH1 and PAH2 with REST was determined using ELISA. […] However, the Mad1 and SAP25 peptides had little effect on the respective PAH1-REST and PAH2-REST interactions. The cellular inhibitory activities of these peptides were then determined using an immunoprecipitation analysis. After incubating P19 cell lysates with several concentrations of SAP25 and MAD1 peptides, REST in the cell lysates was immunoprecipitated using the anti-REST antibody. The precipitates were probed using the anti-Sin3A antibody. […]
Figure 5 Inhibitory effect of the SAP25 and Mad1 peptides on binding of Sin3A PAH1 or PAH2 to REST. […] Binding of GST-REST to PAH1 and PAH2 was measured using the anti-GST antibody and HRP conjugated secondary antibody (mean ± s.d., n = 3). […] Immunoprecipitation was performed with antibodies against (c) REST and (d) Sin3A, and the amount of co-precipitated proteins was then determined using western blot analysis. ‘Un’ indicates no treatment with a peptide. […]
Fluorescence polarization assay […]
After washing with TBST, GST-REST (2 µg/mL) was added to the wells and then incubated for 2 h. The bound GST-REST to PAH1 or PAH2 was detected by using anti-GST antibody […]

Sin3A PAH2 = conditions: Mad1 protein sequence 6–21, ref [34]; cited from earlier work
From the text: as §1

[6] = test system: mouse Sin3A PAH2 (residues 295–385); experiment: Fluorescence polarization binding to Sin3A PAH2; conditions: 1 μM FITC-labeled peptide, PAH1 or PAH2 0-10 μM, 20 mM Tris-HCl, 150 mM NaCl, pH 7.5, 30 min, room temperature; ex 495/em 520 nm; mean ± s.d., n = 3
P19 cells = experiment: Neuronal differentiation of P19 cells (immunocytochemistry, western blot, RT-PCR); format: cell-based, mouse; conditions: 30 μM TAT, 10 days, Tuj1 antibody

Compound: NC1=N[C@H](O)[C@H]2[C@H]3O[C@]4(O)O[C@@H]([C@@H](O)[C@@]2(N1)[C@@H]4O)[C@]3(O)CO [TTX, tetrodotoxin]
- effect of TTX on current injection-promoted action potentials (in words) [1]: almost completely abrogated
- effect of TTX on action potentials elicited by current injections (in words) [2]: almost completely blocked

Compound: AEMIALAGLLQMSQGEX [SAP25 peptide]
- Kd (Sin3A PAH1): 134 nM
- inhibition of PAH1-REST binding (in words) [3]: the level of inhibition of binding of PAH2 to REST by Mad1 was greater than that of SAP25 toward PAH1-REST interactions
- inhibition of PAH2-REST binding (in words) [4]: little effect
- binding to Sin3A PAH1 (in words) [5]: bind PAH1 much more tightly than PAH2
- inhibition of Sin3A-REST interaction (in words) (Sin3A-REST interaction): Mad1 peptide exhibited a much greater ability to block interactions of Sin3A with REST than the SAP25 peptide

Compound: RMNIQMLLEAADYLERX [Mad1 peptide]
- Kd (Sin3A PAH2): 29 nM
- inhibition of PAH1-REST binding (in words) [3]: little effect
- inhibition of PAH2-REST binding (in words) [4]: the level of inhibition of binding of PAH2 to REST by Mad1 was greater than that of SAP25 toward PAH1-REST interactions
- binding to Sin3A PAH2 (in words) [6]: interact with PAH2 much more strongly than PAH1
- inhibition of Sin3A-REST interaction (in words) (Sin3A-REST interaction): much greater ability to block interactions of Sin3A with REST than the SAP25 peptide; also recorded: has inhibitory activity against REST-Sin3A interactions in cells

Compound: YGRKKRRQRRR [TAT]
- neuronal differentiation (in words), TAT control (P19 cells): did not affect neuronal differentiation
